In patent US4172130A, “α-AMINOACYL CONTAINING NEW PEPTIDES WITH GASTRIN EFFECTS AND A PROCESS FOR THE PREPARATION THEREOF” (Richter Gedeon Vegyeszeti Gyar RT, priority 1976, dated 1979):
Peptide text beside a SMILES is read from it. * marks the point of attachment. X2 = CC(C)(C)OC(=O)NOCC(=O)*

Experiments:
gastric acid secretion [1] = experiment: Gastric acid secretion increasing effect, methods of Ghosh and Schild and Lai, modified by Pissidis and Clark; format: in vivo; conditions: for Activity, % (gastric acid secretion increasing effect): in comparison with 0.2 μ/100 g i.v. dosage of pentagastrin = 100%
Protocol: The biological activities of the new compounds according to the invention were tested by the methods of Ghosh and Schild (Br. J. Pharmac. Chemoth. 13, 54 (1958) and Lai (Gut. 5, 327 (1964), modified by Pissidis and Clark (Gut. 8, 196 (1967)). The pharmacological tests have shown that the gastric acid secretion provoked by the new compounds is occasionally higher by 20 to 80% than that provoked by the same dosage of pentagastrin. It is particularly remarkable that the new compounds, in contrast with pentagastrin, are resorbed also from the small intenstine, and, when administered to the small intenstine in a dosage of 20 μg/100 g body weight, exert effects similar to that exerted by a 0.2 μg/100 g i.v. dosage of pentagastrin. […] It is also remarkable that some of the new compounds increase the gastric acid secretion after resorption from the rectum.

gastric acid secretion [2] = conditions: in vivo; cited from earlier work

Compound	Activity, % (gastric acid secretion increasing effect) (gastric acid secretion [1]; 0.2 μg i.v.) [%]	Activity, % (gastric acid secretion increasing effect) (gastric acid secretion [1]; 20 μg rectal) [%]	further results
CSCC[C@H](NC(=O)[C@H](Cc1c[nH]c2ccccc12)NC(=O)CONC(=O)OC(C)(C)C)C(=O)N[C@@H](CC(=O)O)C(=O)N[C@@H](Cc1ccccc1)C(=O)NOCC(=O)O [BOC-O-Gly Met OGly-OH, 2-(2-(tert.-Butoxycarbonyl-aminooxy)-acetyl-L-tryptophyl-L-methionyl-L-aspartyl-L-phenylalanyl-aminooxy)-acetic acid]	25	22	–
CSCC[C@H](NC(=O)[C@H](Cc1c[nH]c2ccccc12)NC(=O)CCNC(=O)OC(C)(C)C)C(=O)N[C@@H](CC(=O)O)C(=O)N[C@@H](Cc1ccccc1)C(N)=O [pentagastrin, BOC--β--Ala-- Trp--Met--Asp--Phe--NH2, reference compound]	100	–	gastric acid secretion when administered enterally (gastric acid secretion [1]; enteral, even in higher dosages): does not increase the gastric acid secretion; activity among known analogs and derivatives of the tetrapeptide-amide / compared with pentagastrin (gastric acid secretion [2]): the most active derivative
H--Trp--Met--Asp--Phe--NH2: carboxy-terminal tetrapeptide-amide, the biologically active center of gastrin	–	–	gastric acid secretion stimulating effect compared with the total hormone (gastrin) (gastric acid secretion [2]): lower by about one order of magnitude
CC(C)C[C@H](NC(=O)[C@H](Cc1c[nH]c2ccccc12)NC(=O)CONC(=O)OC(C)(C)C)C(=O)N[C@@H](CC(=O)O)C(=O)N[C@@H](Cc1ccccc1)C(N)=O [BOC-OGly Leu H, 2-(tert.-Butoxycarbonyl-aminooxy)-acetyl-L-tryptophyl-L-leucyl-L-aspartyl-L-phenylalanine-amide] (X2-WLDF-NH2)	124	68	Activity, % (gastric acid secretion increasing effect) (gastric acid secretion [1]; 2.0 μg i.v.): 272%; Activity, % (gastric acid secretion increasing effect) (gastric acid secretion [1]; 20 μg intestinal): 6%
CSCC[C@H](NC(=O)[C@H](Cc1c[nH]c2ccccc12)NC(=O)CCONC(=O)OC(C)(C)C)C(=O)N[C@@H](CC(=O)O)C(=O)N[C@@H](Cc1ccccc1)C(=O)NOCC(=O)O [BOC-β-OAla Met OGly-OH, 2-(3-(tert.-Butoxycarbonyl-aminooxy)-propionyl-L-tryptophyl-L-methionyl-L-aspartyl-L-phenylalanyl-aminooxy)-acetic acid]	32	–	–
